Laboratory results from patent US5202315A, “Cephalosporin compounds” (Lucky, Ltd., priority 1989, dated 1993).
Converted amounts (≈) assume the structure as drawn. Read-outs that look alike come from different tables or passages of the source.

How the values were obtained:
[1] = In-vivo absorbency (plasma concentrations & pharmacokinetic parameters); design: species or system SD rat (male); conditions: plasma, SD male rat, iv 20 mg/kg; for half-life: rat, iv, 20 mg/kg
Excerpt: The blood samples from the femoral vein of the rats were taken every hour after administration, and analyzed by bio-assay(agar well method).
Tested animal: SD male Rat (220~340 g)

Pseudomonas = experiment: Antibacterial activity; format: cell-based; conditions: statement in words
[2] = In-vivo absorbency (plasma concentrations & pharmacokinetic parameters); design: species or system SD rat (male); conditions: plasma, SD male rat, iv 20 mg/kg, read-out: Plasma Conc.
[3] = test system: Pseudomonas aeruginosa ATCC 25619; experiment: Antibacterial activity, MIC; format: cell-based; conditions: ATCC25619, ATCC 25619, agar two-fold dilution, 37° C., 20 hours, read-out: MIC
In short: (§1)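 The compound is dispersed into Mueller-Hinton agar across a two-fold dilution series. Each strain is applied as 2 μl of a 10^7 CFU/ml suspension and grown 20 hours at 37 °C.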

[4] = test system: Streptococcus faecalis ATCC 29212; experiment: Antibacterial activity, MIC; format: cell-based; conditions: Enterococcus faecalis, ATCC29212; ATCC 29212; agar two-fold dilution, 37° C., 20 hours; read-out: MIC
In short: as §1

[5] = test system: Staphylococcus epidermidis ATCC 12228; experiment: Antibacterial activity, MIC; format: cell-based; conditions: ATCC12228, ATCC 12228, agar two-fold dilution, 37° C., 20 hours, read-out: MIC
In short: as §1

[6] = test system: Staphylococcus aureus ATCC 10537; experiment: Antibacterial activity, MIC; format: cell-based; conditions: ATCC10537, ATCC 10537, agar two-fold dilution, 37° C., 20 hours, read-out: MIC
In short: as §1

[7] = test system: Klebsiella pneumoniae ATCC 10031; experiment: Antibacterial activity, MIC; format: cell-based; conditions: ATCC10031, ATCC 10031, agar two-fold dilution, 37° C., 20 hours, read-out: MIC
In short: as §1

[8] = test system: Bacillus megaterium ATCC 9885; experiment: Antibacterial activity, MIC; format: cell-based; conditions: Priestia megaterium, ATCC9885; ATCC 9885; agar two-fold dilution, 37° C., 20 hours; read-out: MIC
In short: as §1

[9] = test system: Enterobacter aerogenes ATCC 29751; experiment: Antibacterial activity, MIC; format: cell-based; conditions: Klebsiella aerogenes, ATCC29751; ATCC 29751; agar two-fold dilution, 37° C., 20 hours; read-out: MIC
In short: as §1

[10] = test system: Salmonella typhimurium ATCC 14028; experiment: Antibacterial activity, MIC; format: cell-based; conditions: Salmonella enterica; ATCC 14028; agar two-fold dilution, 37° C., 20 hours; read-out: MIC
In short: as §1

[11] = test system: Acinetobacter calcoaceticus ATCC 15473; experiment: Antibacterial activity, MIC; format: cell-based; conditions: ATCC15473, ATCC 15473, agar two-fold dilution, 37° C., 20 hours, read-out: MIC
In short: as §1

[12] = test system: Serratia marcescens ATCC 27117; experiment: Antibacterial activity, MIC; format: cell-based; conditions: ATCC27117, ATCC 27117, agar two-fold dilution, 37° C., 20 hours, read-out: MIC
In short: as §1

[13] = test system: Providencia rettgeri ATCC 9250; experiment: Antibacterial activity, MIC; format: cell-based; conditions: ATCC9250, agar two-fold dilution, 37° C., 20 hours
In short: as §1

[14] = test system: Bacillus cereus ATCC 11778; experiment: Antibacterial activity, MIC; format: cell-based; conditions: ATCC11778, ATCC 11778, agar two-fold dilution, 37° C., 20 hours, read-out: MIC
In short: as §1

[15] = test system: Shigella flexneri ATCC 11836; experiment: Antibacterial activity, MIC; format: cell-based; conditions: ATCC11836, agar two-fold dilution, 37° C., 20 hours
In short: as §1

[16] = test system: Pseudomonas aeruginosa ATCC 27853; experiment: Antibacterial activity, MIC; format: cell-based; conditions: ATCC27853, ATCC 27853, agar two-fold dilution, 37° C., 20 hours, read-out: MIC
In short: as §1

[17] = test system: Citrobacter freundii ATCC 8090; experiment: Antibacterial activity, MIC; format: cell-based; conditions: ATCC8090, ATCC 8090, agar two-fold dilution, 37° C., 20 hours, read-out: MIC
In short: as §1

[18] = test system: Escherichia coli ATCC 25922; experiment: Antibacterial activity, MIC; format: cell-based; conditions: ATCC25922, agar two-fold dilution, 37° C., 20 hours
In short: as §1

[19] = test system: Shigella sonnei ATCC 11060; experiment: Antibacterial activity, MIC; format: cell-based; conditions: ATCC11060, ATCC 11060, agar two-fold dilution, 37° C., 20 hours, read-out: MIC
In short: as §1

[20] = test system: Enterobacter cloacae ATCC 27508; experiment: Antibacterial activity, MIC; format: cell-based; conditions: ATCC27508, ATCC 27508, agar two-fold dilution, 37° C., 20 hours, read-out: MIC
In short: as §1

[21] = test system: Staphylococcus aureus ATCC 6538p; experiment: Antibacterial activity, MIC; format: cell-based; conditions: ATCC6538P, ATCC 6538p, agar two-fold dilution, 37° C., 20 hours, read-out: MIC
In short: as §1

[22] = test system: Micrococcus luteus ATCC 9341; experiment: Antibacterial activity, MIC; format: cell-based; conditions: ATCC9341, ATCC 9341, agar two-fold dilution, 37° C., 20 hours, read-out: MIC
In short: as §1

[23] = test system: Proteus mirabilis ATCC 25933; experiment: Antibacterial activity, MIC; format: cell-based; conditions: ATCC25933, ATCC 25933, agar two-fold dilution, 37° C., 20 hours, read-out: MIC
In short: as §1

[24] = test system: Pseudomonas aeruginosa ATCC 10145; experiment: Antibacterial activity, MIC; format: cell-based; conditions: ATCC10145, ATCC 10145, agar two-fold dilution, 37° C., 20 hours, read-out: MIC
In short: as §1

[25] = test system: Proteus vulgaris ATCC 6059; experiment: Antibacterial activity, MIC; format: cell-based; conditions: ATCC6059, ATCC 6059, agar two-fold dilution, 37° C., 20 hours, read-out: MIC
In short: as §1

[26] = test system: Morganella morganii ATCC 8076h; experiment: Antibacterial activity, MIC; format: cell-based; conditions: ATCC8076H, agar two-fold dilution, 37° C., 20 hours
In short: as §1

[27] = test system: Escherichia coli ATCC 10536; experiment: Antibacterial activity, MIC; format: cell-based; conditions: ATCC10536, agar two-fold dilution, 37° C., 20 hours
In short: as §1

Structure (SMILES): CC(C)(O/N=C(\C(=O)NC1C(=O)N2C(C(=O)[O-])=C(CSc3nc(N)cc(N)[n+]3N)CS[C@H]12)c1csc(N)n1)C(=O)O (stereo partly shown) [Compound I-15, 7-[(Z)-2-(2-aminothiazol-4-yl)-2-(2-carboxyprop-2-oxyimino)acetamido]-3-(1,4,6-triaminopyrimidinium-2-yl) thiomethyl-3-cephem-4-carboxylate]
- concentration at 1 h ([1]; 60 min, read-out: Plasma Conc.): 2400 ng/mL
- concentration at 2 h ([1]; 120 min, read-out: Plasma Conc.): 600 ng/mL
- AUC ([1]; two compartment model): 43400 ng·h/mL
- half-life ([1]; two compartment model, read-out: T1/2 (α)): 3 min
- half-life ([1]; two compartment model, read-out: T1/2 (β)): 29 min
- antibacterial activities, especially against Pseudomonas (Pseudomonas): excellent
- concentration at 1 min ([2]; 1 min): 148000 ng/mL
- concentration at 2.5 min ([2]; 2.5 min): 104000 ng/mL
- concentration at 5 min ([2]; 5 min): 71000 ng/mL
- concentration at 10 min ([2]; 10 min): 53000 ng/mL
- concentration at 20 min ([2]; 20 min): 22000 ng/mL
- concentration at 40 min ([2]; 40 min): 10000 ng/mL
- MIC [3]: 1 µg/mL (≈ 1.6 µM)
- MIC [4]: > 128 µg/mL
- MIC [5]: 2 µg/mL (≈ 3.2 µM)
- MIC [6]: 2 µg/mL (≈ 3.2 µM)
- MIC [7]: 0.063 µg/mL (≈ 0.101 µM)
- MIC [8]: 0.5 µg/mL (≈ 0.8 µM)
- MIC [9]: 1 µg/mL (≈ 1.6 µM)
- MIC [10]: 0.13 µg/mL (≈ 0.208 µM)
- MIC [11]: 2 µg/mL (≈ 3.2 µM)
- MIC [12]: 0.063 µg/mL (≈ 0.101 µM)
- MIC [13]: ≤ 0.008 µg/mL
- MIC [14]: 64 µg/mL (≈ 102 µM)
- MIC [15]: 0.031 µg/mL (≈ 0.0496 µM)
- MIC [16]: 1 µg/mL (≈ 1.6 µM)
- MIC [17]: 0.063 µg/mL (≈ 0.101 µM)
- MIC [18]: 0.063 µg/mL (≈ 0.101 µM)
- MIC [19]: 0.063 µg/mL (≈ 0.101 µM)
- MIC [20]: 0.016 µg/mL (≈ 0.0256 µM)
- MIC [21]: 4 µg/mL (≈ 6.4 µM)
- MIC [22]: 0.25 µg/mL (≈ 0.4 µM)
- MIC [23]: 0.016 µg/mL (≈ 0.0256 µM)
- MIC [24]: 1 µg/mL (≈ 1.6 µM)
- MIC [25]: 0.016 µg/mL (≈ 0.0256 µM)
- MIC [26]: ≤ 0.008 µg/mL
- MIC [27]: 0.063 µg/mL (≈ 0.101 µM)
